Earlier results on one substance are cited in US6461650B1, “Preparation for supplementing a beverage and method for enriching a beverage in calcium and magnesium” (Institut National de la Recherche Agronomique, priority 1998, dated 2002).

The data set relates to rats. Conditions: incorporated in the diet.

In the case of inulin, the “digestive assimilation of calcium and magnesium” value was “increase the digestive assimilation of calcium and magnesium”.
